Earlier results as cited in US7160886B2, “Acylated piperazine derivatives as melanocortin-4 receptor agonists” (Merck & Co., Inc., priority 2003, dated 2007).

Test system: men with erectile dysfunction
Conditions: for duration of effect / onset of action: after an oral dose; for patients in whom effective / adequate response: oral

| Structure (SMILES) | duration of effect | onset of action | patients in whom effective / adequate response |
| --- | --- | --- | --- |
| Cc1ccc(N(CC2=NCCN2)c2cccc(O)c2)cc1 [phentolamine] | 2 h | 5 to 30 min | 35–40% |
| CCCc1nn(C)c2c(=O)[nH]c(-c3cc(S(=O)(=O)N4CCN(C)CC4)ccc3OCC)nc12 [sildenafil] | about 4 hours | 30 to 60 min | about 70% |
